From ChEMBL document CHEMBL4507256 (2021)

Assays:
[1] = test system: Proto-oncogene tyrosine-protein kinase receptor Ret (Homo sapiens), P07949 [V804M]; settings: Compound concentration 1000.0 nM
[2] = biological target: Calcium/calmodulin-dependent protein kinase type 1D (Homo sapiens) (UniProt Q8IU85); settings: Compound concentration 1000.0 nM
[3] = biological target: Alpha-2C adrenergic receptor (Homo sapiens) (UniProt P18825); settings: Compound concentration 10.0 uM
[4] = biological target: T1, Muscarinic acetylcholine receptor M5 (Homo sapiens) (UniProt P08912); settings: Compound concentration 10.0 uM
T1 sequence (whole entry): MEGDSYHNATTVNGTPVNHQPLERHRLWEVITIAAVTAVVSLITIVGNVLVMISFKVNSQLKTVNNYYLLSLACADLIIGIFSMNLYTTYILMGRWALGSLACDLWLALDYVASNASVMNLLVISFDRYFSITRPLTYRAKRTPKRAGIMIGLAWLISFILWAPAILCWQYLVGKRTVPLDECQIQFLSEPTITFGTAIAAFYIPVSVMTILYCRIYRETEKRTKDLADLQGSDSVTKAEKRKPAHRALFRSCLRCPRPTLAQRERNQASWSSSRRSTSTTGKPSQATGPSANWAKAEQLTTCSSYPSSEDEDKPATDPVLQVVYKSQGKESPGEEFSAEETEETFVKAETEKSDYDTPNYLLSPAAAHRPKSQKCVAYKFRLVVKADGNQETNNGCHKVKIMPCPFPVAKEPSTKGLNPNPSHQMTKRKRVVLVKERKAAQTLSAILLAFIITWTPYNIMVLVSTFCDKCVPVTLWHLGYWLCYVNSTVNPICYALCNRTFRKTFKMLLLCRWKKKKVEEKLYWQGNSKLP

[5] = biological target: Serine/threonine-protein kinase NIM1 (Homo sapiens) (UniProt Q8IY84); settings: Compound concentration 1000.0 nM
Chain of Serine/threonine-protein kinase NIM1 (Homo sapiens) (Q8IY84 whole entry): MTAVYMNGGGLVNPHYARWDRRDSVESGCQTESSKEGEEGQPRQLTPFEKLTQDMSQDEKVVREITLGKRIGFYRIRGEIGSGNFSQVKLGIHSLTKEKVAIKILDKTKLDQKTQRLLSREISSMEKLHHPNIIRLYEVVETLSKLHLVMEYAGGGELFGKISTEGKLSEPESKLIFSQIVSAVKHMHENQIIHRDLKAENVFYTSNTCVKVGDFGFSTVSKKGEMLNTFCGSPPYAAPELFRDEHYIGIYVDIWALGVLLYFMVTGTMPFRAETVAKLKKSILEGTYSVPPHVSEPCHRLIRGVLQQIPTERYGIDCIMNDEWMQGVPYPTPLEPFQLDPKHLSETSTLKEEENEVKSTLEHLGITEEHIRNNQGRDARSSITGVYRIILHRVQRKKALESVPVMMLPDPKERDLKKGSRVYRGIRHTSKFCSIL

[6] = biological target: Activin receptor type-2B (Homo sapiens) (UniProt Q13705); settings: Compound concentration 1000.0 nM
[7] = biological target: Serine/threonine-protein kinase Nek4 (Homo sapiens) (UniProt P51957); settings: Compound concentration 1000.0 nM
[8] = biological target: Serine/threonine-protein kinase/endoribonuclease IRE1 (Homo sapiens) (UniProt O75460); settings: Compound concentration 1000.0 nM
[9] = biological target: Cyclin-dependent kinase 18 (Homo sapiens) (UniProt Q07002); settings: Compound concentration 1000.0 nM
[10] = biological target: Calcium-dependent protein kinase 1 (Plasmodium falciparum) (UniProt P62344); settings: Compound concentration 1000.0 nM
[11] = biological target: Serine/threonine-protein kinase Nek9 (Homo sapiens) (UniProt Q8TD19); settings: Compound concentration 1000.0 nM
[12] = biological target: Mitogen-activated protein kinase 15 (Homo sapiens) (UniProt Q8TD08); settings: Compound concentration 1000.0 nM
[13] = biological target: Serine/threonine-protein kinase 25 (Homo sapiens) (UniProt O00506); settings: Compound concentration 1000.0 nM
[14] = biological target: Serine/threonine-protein kinase Nek5 (Homo sapiens) (UniProt Q6P3R8); settings: Compound concentration 1000.0 nM
[15] = biological target: Phosphatidylinositol 4,5-bisphosphate 3-kinase catalytic subunit beta isoform (Homo sapiens) (UniProt P42338); settings: Compound concentration 1000.0 nM
[16] = biological target: Dual specificity tyrosine-phosphorylation-regulated kinase 1A (Homo sapiens) (UniProt Q13627); settings: Compound concentration 1000.0 nM
[17] = biological target: 5'-AMP-activated protein kinase catalytic subunit alpha-1 (Homo sapiens) (UniProt Q13131); settings: Compound concentration 1000.0 nM
[18] = biological target: Casein kinase I isoform alpha-like (Homo sapiens) (UniProt Q8N752); settings: Compound concentration 1000.0 nM
Chain of Casein kinase I isoform alpha-like (Homo sapiens) (Q8N752 whole entry, canonical isoform): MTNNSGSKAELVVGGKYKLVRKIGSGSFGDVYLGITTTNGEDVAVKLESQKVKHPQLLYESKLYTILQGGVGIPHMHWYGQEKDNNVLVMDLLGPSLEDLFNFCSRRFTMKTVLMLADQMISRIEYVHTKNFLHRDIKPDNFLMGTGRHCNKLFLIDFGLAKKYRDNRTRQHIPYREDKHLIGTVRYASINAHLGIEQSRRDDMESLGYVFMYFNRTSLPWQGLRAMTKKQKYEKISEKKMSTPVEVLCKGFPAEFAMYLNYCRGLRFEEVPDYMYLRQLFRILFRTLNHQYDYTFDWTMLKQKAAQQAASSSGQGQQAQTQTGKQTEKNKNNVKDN

[19] = biological target: Tyrosine-protein kinase Lyn (Homo sapiens) (UniProt P07948); settings: Compound concentration 1000.0 nM
[20] = biological target: Muscarinic acetylcholine receptor M3 (Homo sapiens) (UniProt P20309); settings: Compound concentration 10.0 uM
Chain of Muscarinic acetylcholine receptor M3 (Homo sapiens) (P20309 whole entry, looked up): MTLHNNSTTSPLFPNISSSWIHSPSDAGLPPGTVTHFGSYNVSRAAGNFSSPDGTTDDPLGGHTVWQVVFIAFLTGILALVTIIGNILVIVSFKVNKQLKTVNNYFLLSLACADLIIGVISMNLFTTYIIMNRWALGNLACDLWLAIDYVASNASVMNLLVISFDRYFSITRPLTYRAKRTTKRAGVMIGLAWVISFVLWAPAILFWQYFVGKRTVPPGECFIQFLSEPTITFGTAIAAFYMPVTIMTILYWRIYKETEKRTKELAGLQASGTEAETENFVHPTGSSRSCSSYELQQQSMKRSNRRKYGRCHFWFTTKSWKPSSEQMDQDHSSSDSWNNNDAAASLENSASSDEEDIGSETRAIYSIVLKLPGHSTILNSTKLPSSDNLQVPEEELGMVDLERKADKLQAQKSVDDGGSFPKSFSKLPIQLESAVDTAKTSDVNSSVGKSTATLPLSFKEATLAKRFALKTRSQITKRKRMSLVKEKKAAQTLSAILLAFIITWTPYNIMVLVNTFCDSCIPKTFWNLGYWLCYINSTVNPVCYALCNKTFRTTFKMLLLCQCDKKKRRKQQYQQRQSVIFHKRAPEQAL

[21] = test system: Tyrosine-protein kinase ABL1 (Homo sapiens), P00519 [Q252H]; settings: Compound concentration 1000.0 nM
[22] = biological target: Phosphorylase b kinase regulatory subunit alpha, liver isoform (Homo sapiens) (UniProt P46019); settings: Compound concentration 1000.0 nM
Chain of Phosphorylase b kinase regulatory subunit alpha, liver isoform (Homo sapiens) (P46019 whole entry, canonical isoform): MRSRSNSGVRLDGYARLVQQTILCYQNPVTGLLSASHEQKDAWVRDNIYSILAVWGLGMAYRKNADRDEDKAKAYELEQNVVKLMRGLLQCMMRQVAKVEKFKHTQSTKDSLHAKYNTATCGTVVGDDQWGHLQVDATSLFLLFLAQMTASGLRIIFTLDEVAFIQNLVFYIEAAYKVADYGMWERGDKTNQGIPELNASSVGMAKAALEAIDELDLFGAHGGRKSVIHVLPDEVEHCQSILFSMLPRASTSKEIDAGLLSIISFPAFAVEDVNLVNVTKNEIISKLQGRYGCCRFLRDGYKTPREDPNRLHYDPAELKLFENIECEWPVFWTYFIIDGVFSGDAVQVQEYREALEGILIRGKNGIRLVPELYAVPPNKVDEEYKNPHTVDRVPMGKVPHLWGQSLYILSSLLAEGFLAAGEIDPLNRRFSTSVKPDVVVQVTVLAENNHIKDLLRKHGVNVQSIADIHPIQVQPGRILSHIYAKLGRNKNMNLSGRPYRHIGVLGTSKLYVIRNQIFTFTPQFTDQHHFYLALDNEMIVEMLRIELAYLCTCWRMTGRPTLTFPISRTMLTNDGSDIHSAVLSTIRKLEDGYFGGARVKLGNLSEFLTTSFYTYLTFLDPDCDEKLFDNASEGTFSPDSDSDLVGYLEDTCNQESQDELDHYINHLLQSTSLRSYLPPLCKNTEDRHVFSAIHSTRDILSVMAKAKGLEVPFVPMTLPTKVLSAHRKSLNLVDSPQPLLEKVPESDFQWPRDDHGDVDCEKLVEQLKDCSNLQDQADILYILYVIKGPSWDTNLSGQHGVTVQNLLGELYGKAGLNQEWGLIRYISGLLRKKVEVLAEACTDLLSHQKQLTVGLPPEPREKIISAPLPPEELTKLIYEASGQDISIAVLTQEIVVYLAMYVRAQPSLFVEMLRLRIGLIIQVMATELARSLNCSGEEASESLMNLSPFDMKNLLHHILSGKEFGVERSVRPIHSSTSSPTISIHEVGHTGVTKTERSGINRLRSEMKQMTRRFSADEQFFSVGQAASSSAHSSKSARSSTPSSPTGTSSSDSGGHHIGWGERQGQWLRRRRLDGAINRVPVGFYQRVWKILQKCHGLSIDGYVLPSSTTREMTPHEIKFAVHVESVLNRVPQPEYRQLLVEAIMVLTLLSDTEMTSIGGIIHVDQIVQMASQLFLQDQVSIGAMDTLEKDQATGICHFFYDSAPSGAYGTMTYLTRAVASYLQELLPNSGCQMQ

[23] = biological target: Mitogen-activated protein kinase kinase kinase 20 (Homo sapiens) (UniProt Q9NYL2); settings: Compound concentration 1000.0 nM
[24] = biological target: Vascular endothelial growth factor receptor 2 (Homo sapiens) (UniProt P35968); settings: Compound concentration 1000.0 nM
Chain of Vascular endothelial growth factor receptor 2 (Homo sapiens) (P35968 whole entry): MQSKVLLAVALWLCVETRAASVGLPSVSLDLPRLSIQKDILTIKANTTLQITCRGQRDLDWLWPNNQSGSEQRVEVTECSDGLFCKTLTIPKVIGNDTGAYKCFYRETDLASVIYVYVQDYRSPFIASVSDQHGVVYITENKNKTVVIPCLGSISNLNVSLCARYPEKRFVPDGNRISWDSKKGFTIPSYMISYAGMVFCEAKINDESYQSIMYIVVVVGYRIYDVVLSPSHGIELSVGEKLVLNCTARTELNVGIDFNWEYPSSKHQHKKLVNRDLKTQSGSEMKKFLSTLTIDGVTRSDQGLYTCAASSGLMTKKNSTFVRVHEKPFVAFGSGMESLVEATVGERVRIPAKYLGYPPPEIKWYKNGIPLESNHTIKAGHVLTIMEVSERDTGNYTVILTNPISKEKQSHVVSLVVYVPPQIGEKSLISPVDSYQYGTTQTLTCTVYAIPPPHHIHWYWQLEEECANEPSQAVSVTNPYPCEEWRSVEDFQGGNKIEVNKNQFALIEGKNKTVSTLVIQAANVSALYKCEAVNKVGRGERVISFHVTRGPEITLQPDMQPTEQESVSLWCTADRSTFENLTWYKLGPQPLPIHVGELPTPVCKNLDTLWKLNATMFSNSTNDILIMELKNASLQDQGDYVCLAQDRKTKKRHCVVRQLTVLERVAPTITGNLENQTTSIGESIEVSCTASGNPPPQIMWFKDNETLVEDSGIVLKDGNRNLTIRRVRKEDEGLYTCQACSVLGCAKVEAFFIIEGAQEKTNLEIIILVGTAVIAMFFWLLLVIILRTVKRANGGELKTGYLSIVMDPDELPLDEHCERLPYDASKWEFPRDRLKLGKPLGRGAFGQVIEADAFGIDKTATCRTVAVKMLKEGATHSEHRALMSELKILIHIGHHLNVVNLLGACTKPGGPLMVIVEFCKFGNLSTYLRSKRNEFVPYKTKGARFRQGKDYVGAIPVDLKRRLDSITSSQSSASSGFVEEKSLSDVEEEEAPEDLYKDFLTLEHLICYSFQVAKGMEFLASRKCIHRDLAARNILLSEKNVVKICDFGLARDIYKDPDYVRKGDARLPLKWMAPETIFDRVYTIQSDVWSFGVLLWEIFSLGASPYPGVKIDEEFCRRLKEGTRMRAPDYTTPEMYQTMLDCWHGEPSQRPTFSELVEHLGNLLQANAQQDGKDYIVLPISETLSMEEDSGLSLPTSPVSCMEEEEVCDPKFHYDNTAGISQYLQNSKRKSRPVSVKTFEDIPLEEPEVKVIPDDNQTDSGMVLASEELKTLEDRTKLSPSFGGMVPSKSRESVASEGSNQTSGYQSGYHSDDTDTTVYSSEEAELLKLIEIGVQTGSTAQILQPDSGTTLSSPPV

[25] = biological target: Serine/threonine-protein kinase 26 (Homo sapiens) (UniProt Q9P289); settings: Compound concentration 1000.0 nM
[26] = biological target: Protein kinase C theta type (Homo sapiens) (UniProt Q04759); settings: Compound concentration 1000.0 nM
[27] = biological target: Platelet-derived growth factor receptor alpha (Homo sapiens) (UniProt P16234); settings: Compound concentration 1000.0 nM
[28] = biological target: Phosphatidylinositol 4,5-bisphosphate 3-kinase catalytic subunit delta isoform (Homo sapiens) (UniProt O00329); settings: Compound concentration 1000.0 nM
[29] = biological target: MAP kinase-activated protein kinase 2 (Homo sapiens) (UniProt P49137); settings: Compound concentration 1000.0 nM
[30] = biological target: Serine/threonine-protein kinase 17B (Homo sapiens) (UniProt O94768); settings: Compound concentration 1000.0 nM
[31] = biological target: Phosphorylase b kinase gamma catalytic chain, skeletal muscle/heart isoform (Homo sapiens) (UniProt Q16816); settings: Compound concentration 1000.0 nM
[32] = biological target: Mitogen-activated protein kinase 9 (Homo sapiens) (UniProt P45984); settings: Compound concentration 1000.0 nM
[33] = biological target: Serine/threonine-protein kinase Nek10 (Homo sapiens) (UniProt Q6ZWH5); settings: Compound concentration 1000.0 nM
[34] = biological target: Mitogen-activated protein kinase 14 (Homo sapiens) (UniProt Q16539); settings: Compound concentration 1000.0 nM
[35] = biological target: G protein-coupled receptor kinase 4 (Homo sapiens) (UniProt P32298); settings: Compound concentration 1000.0 nM
[36] = biological target: Calcium/calmodulin-dependent protein kinase type II subunit delta (Homo sapiens) (UniProt Q13557); settings: Compound concentration 1000.0 nM
[37] = biological target: Dual specificity protein kinase CLK3 (Homo sapiens) (UniProt P49761); settings: Compound concentration 1000.0 nM

Chain of Proto-oncogene tyrosine-protein kinase receptor Ret (Homo sapiens), P07949 [V804M] (P07949 whole entry V804M): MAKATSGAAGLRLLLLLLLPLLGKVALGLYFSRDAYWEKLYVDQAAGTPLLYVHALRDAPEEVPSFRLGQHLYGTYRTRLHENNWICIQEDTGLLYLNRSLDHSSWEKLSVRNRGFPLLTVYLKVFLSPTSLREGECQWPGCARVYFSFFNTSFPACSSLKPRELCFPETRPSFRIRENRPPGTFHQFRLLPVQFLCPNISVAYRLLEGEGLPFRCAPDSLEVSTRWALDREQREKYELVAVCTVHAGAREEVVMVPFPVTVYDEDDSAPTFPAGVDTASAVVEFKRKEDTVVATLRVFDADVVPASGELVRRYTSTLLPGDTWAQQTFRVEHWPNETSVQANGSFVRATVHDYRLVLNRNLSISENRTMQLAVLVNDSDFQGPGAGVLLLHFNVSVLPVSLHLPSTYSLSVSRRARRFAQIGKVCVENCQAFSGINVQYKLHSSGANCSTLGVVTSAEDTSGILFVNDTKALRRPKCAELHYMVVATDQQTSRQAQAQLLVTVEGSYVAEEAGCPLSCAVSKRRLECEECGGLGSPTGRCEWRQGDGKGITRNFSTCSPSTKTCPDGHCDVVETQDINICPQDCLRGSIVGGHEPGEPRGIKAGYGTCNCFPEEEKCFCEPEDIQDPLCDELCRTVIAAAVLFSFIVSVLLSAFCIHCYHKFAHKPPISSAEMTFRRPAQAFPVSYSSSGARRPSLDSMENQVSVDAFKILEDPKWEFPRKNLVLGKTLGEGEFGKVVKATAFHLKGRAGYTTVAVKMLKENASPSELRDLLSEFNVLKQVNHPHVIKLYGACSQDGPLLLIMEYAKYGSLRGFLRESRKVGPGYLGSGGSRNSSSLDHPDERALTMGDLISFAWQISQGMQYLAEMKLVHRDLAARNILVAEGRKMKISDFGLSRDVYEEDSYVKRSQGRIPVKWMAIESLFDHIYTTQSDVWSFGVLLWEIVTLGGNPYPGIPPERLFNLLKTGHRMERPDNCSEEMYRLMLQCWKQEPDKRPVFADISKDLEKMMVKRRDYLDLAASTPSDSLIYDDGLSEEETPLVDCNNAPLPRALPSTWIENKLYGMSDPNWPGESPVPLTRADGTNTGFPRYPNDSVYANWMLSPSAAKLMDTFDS

CCC(=N\O)/C(C)=C/c1ccc(F)cc1 [A-079]
inactive: residual activity [1] 100% | residual activity [2] 100% | inhibition [3] 8.29% | inhibition [4] 6.68% | residual activity [5] 94% | residual activity [6] 91% | residual activity [7] 83% | residual activity [8] 77% | residual activity [9] 89% | residual activity [10] 87% | residual activity [11] 79% | residual activity [12] 95% | residual activity [13] 86% | residual activity [14] 84% | residual activity [15] 99% | residual activity [16] 91% | residual activity [17] 99% | residual activity [18] 78% | residual activity [19] 87% | inhibition [20] -6.83% | residual activity [21] 69% | residual activity [22] 90% | residual activity [23] 84% | residual activity [24] 81% | residual activity [25] 81% | residual activity [26] 80% | residual activity [27] 78% | residual activity [28] 72% | residual activity [29] 69% | residual activity [30] 74% | residual activity [31] 100% | residual activity [32] 92% | residual activity [33] 95% | residual activity [34] 100% | residual activity [35] 100% | residual activity [36] 99% | residual activity [37] 73%

CCC(=N\O)/C(C)=C/c1ccc(F)c(C)c1 [A-226]
inactive: residual activity [1] 100% | residual activity [2] 92% | inhibition [3] 15.7% | inhibition [4] 2.77% | residual activity [5] 100% | residual activity [6] 100% | residual activity [7] 67% | residual activity [8] 90% | residual activity [9] 87% | residual activity [10] 85% | residual activity [11] 100% | residual activity [12] 100% | residual activity [13] 100% | residual activity [14] 100% | residual activity [15] 100% | residual activity [16] 100% | residual activity [17] 73% | residual activity [18] 83% | residual activity [19] 100% | inhibition [20] -5.75% | residual activity [21] 100% | residual activity [22] 100% | residual activity [23] 76% | residual activity [24] 100% | residual activity [25] 100% | residual activity [26] 88% | residual activity [27] 100% | residual activity [28] 100% | residual activity [29] 94% | residual activity [30] 100% | residual activity [31] 100% | residual activity [32] 100% | residual activity [33] 100% | residual activity [34] 100% | residual activity [35] 100% | residual activity [36] 100% | residual activity [37] 100%
